# A melting point compilation (Tetko et al.; mined from patent text by program, amines drawn as free bases though some values may be those of a salt)
row,melting point,SMILES
1,75 °C,CCCCCC1CCC(c2ccc(-c3cc(F)c(C(F)(F)Oc4cc(F)c(C(F)(F)F)c(F)c4)c(F)c3)c(F)c2)OC1 (centres undefined)
2,207 °C,Cc1cccc(C2(c3cccc(C)c3)CCC(=O)[C@H]3CN(C(=O)Cc4ccccc4)C[C@H]32)c1 (racemic)
3,163 to 166 °C,Cc1cc(C)cc(-c2cc(C)cn2-c2ccc(S(N)(=O)=O)cc2)c1
4,185 °C,CC(=O)Nc1ccccc1N(CC(=O)OC(C)(C)C)C(=O)CNC(=O)Nc1cccc(C)c1
5,80 to 82 °C,O=[N+]([O-])c1ccc2c(c1)OC(CO)O2 (centres undefined)
6,168 to 170 °C,CCOC(=O)c1c2ccc(CC(=O)NOCC(=O)N3CCCC3)ccc-2c(C(=O)OCC)c1N
7,183 to 185 °C,Nc1ncnc2c1ncn2[C@H]1CO[C@@H](CO)C1
8,144 to 146 °C,O=C1C[C@@H]2O[C@@H](CS(=O)(=O)c3ccccc3)CN12 (racemic)
9,156 °C,CCOC(=O)C(O)=CC=C(SC)C(=O)c1ccc(O)c(O)c1
10,65 to 67 °C,CCCCCC(CC(=O)Nc1cc(C(N)=O)ccc1C(C)(C)C)c1ccc(OCCCOC)cc1OC (centres undefined)
11,146 to 147 °C,COc1cccc(Cc2cc3cccc(-c4cccc(C(=O)NC5CCOCC5)c4)c3o2)c1
12,181 to 182 °C,Cc1ccccc1-c1cn(-c2ccccc2)c2ncnc(N)c12
13,158 to 159 °C,O=C(O)c1ccc(I)cc1F
14,110 to 111 °C,CN(C(=O)Nc1nc(OCC(F)(F)F)cc(OCC(F)(F)F)n1)c1ccc(Br)cc1
15,77 to 79 °C,CCc1cc(CCN2C(=O)c3ccccc3C2=O)c(OC)nc1C
16,224 °C,CC(C)NOC(=O)c1n[nH]c2c(=O)[nH]c3cc(Cl)ccc3c(=O)c12
17,130 °C,COCCc1nc2c(N)nc3ccccc3c2n1CCOCCN(C)S(=O)(=O)C(C)C
18,97 to 98 °C,COc1ccc(CCNC(=O)COc2ccc(C[C@H](OC)C(=O)O)cc2)cc1
19,138 to 139 °C,O=c1[nH]c(=O)n(C2CC(OCc3ccccc3)C(CO)O2)cc1F (centres undefined)
20,151 to 154 °C,CNN1CSC(=Cc2cc(C(C)(C)C)c(O)c(C(C)(C)C)c2)C1=O
21,50 to 56 °C,CNCc1ccc(CSCCNC2=NS(=O)(=O)N=C2NC)o1
22,96 °C,CC(C)(C)c1c(Cl)nc(OCc2ccccc2)nc1OCc1ccccc1
23,74 to 77 °C,CCC(C)(C)c1cc(-c2cccc(CC3SC(N4CCOCC4)=NC3=O)c2)ccc1O (centres undefined)
24,181 to 184 °C,C[C@H](OC(=O)NCCC(F)(F)C(F)(F)F)C(=O)N[C@@H]1C(=O)N(CCO)c2ccccc2-c2ccccc21

row,melting point,SMILES
1,174 to 176 °C,NC(=O)CN1CC(OCc2ccccc2)=CC1=O
2,228 to 231 °C,c1ccc(-c2ncc(-c3cnc(-c4ccccc4)o3)cn2)cc1
3,142 to 144 °C,Cc1ccc2cccc(OCc3c(Cl)ccc(S(=O)(=O)N(CCCCN)C(C)(C)C)c3Cl)c2n1
4,92 to 94 °C,CC(C)N(CCO)C(=O)c1noc2ccccc12
5,155 to 158 °C,O=S(CCCCCl)Cc1ccc(Cl)c(Cl)c1 (centres undefined)
6,162 to 164 °C,COc1ccc2c(c1)c(Cc1cc(=O)n(-c3cccc(F)c3)[nH]1)c(C)n2C(=O)c1ccc(Cl)cc1
7,180 to 182 °C,CCOC(=O)COc1ccc(SCc2cccc3nc(-c4ccc(C(F)(F)F)cc4)oc23)cc1C
8,195 to 200 °C,O=C(NCc1ccccc1)C1c2ccccc2-c2ccccc21
9,242 to 245 °C,CCC(C)NC1=NS(=O)(=O)c2ccc(Cl)cc2N1 (centres undefined)
10,224 to 226 °C,NS(=O)(=O)c1ccc(-n2nc(C(F)(F)F)cc2-c2ccc(-c3cscn3)c(O)c2)cc1F
11,121 to 125 °C,C#Cc1cccc(Oc2nc(Cl)nc(Oc3cccc(C#C)c3)n2)c1
12,55 to 57 °C,Cc1ccc(S(=O)O)cc1
13,242 to 244 °C,CNC(=O)c1ccc(-c2cccc(C3=NC(C)(C)Cc4cc(OC)c5c(c43)CC(C)(C)O5)c2)cc1
14,221 to 224 °C,O=C(O)Cc1c(C(=O)c2ccc(Cl)cc2)[nH]c2ccccc12
15,54 to 55 °C,OCCCc1conc1-c1ccc(Cl)c(F)c1
16,125 to 127 °C,COC(=O)C[C@H]1C[C@H](C=Cc2c(-c3ccc(F)cc3)c(-c3ccc(F)cc3)c(C(=O)OCc3ccccc3)n2C(C)C)OC(C)(C)O1
17,74 to 76 °C,CC(C)(C)OC(=O)N[C@@H](Cc1ccnc(C#N)c1)C(=O)OCc1ccccc1
18,110 to 112 °C,O=[N+]([O-])c1cc2n(n1)CCOC2
19,83 to 85 °C,COc1ccc(C2CCSCC2)cc1OC1CCCC1
20,266 °C,COC(=O)c1c(C)n(-c2cc([N+](=O)[O-])c(C)cc2C)cc(Cl)c1=O
21,112 °C,CN(CCCCCCCNC(=O)NCCCOc1cccc(CN2CCCCC2)c1)CCN(Cc1ccc(F)cc1)c1ccccn1
22,116 to 117 °C,O=C(O)CCc1cn(Cc2ccc(OCc3cccnc3)cc2)nc1OCc1cccnc1
23,173 to 174 °C,COc1cc(-c2c(Cl)c(CCl)nc3sc4c(c23)CCN(Cc2ccccc2)C4)ccc1OC(C)C
24,54 to 55 °C,CC1(C)CC(C)(O)C2CCC2(C)C1 (centres undefined)

row,melting point,SMILES
1,140 °C,Nc1ncccc1OCC#CI
2,197 to 198 °C,CCN(CC)c1ccc2nc3c4ccccc4c(=Nc4nc5ccc(OC)cc5s4)cc-3oc2c1
3,223 to 224 °C,O=C1CCC2=C(CCc3cc(F)ccc32)N1
4,127 to 131 °C,Cc1c(SCCCSCc2ccc(Cl)s2)ccnc1CNc1cnc2ccccc2c1
5,45 to 46 °C,O=C(O)C(F)(CCC(F)(F)C(F)(F)C(F)(F)C(F)(F)F)C(F)(F)F (centres undefined)
6,250 to 255 °C,Cc1ccc(F)c2c1N(CC(=O)Nc1ccccc1F)C(=O)C21COc2cc3c(cc21)CCO3 (centres undefined)
7,200 to 230 °C,COC(=O)c1cc(-c2c(OC)cccc2OC)n(-c2ccc(NS(=O)(=O)c3ccc(C)cc3)cc2C2CCCC2)n1
8,137 to 138 °C,CCCC1(CC(=O)OCC)OCCc2c1[nH]c1c(C)cc(F)c(Br)c21 (centres undefined)
9,252 to 257 °C,c1ncn(Cc2ccc3c(c2)Cc2c(-c4ccsc4)n[nH]c2-3)n1
10,110 to 111 °C,CC(C)(C)OC(=O)NC(CNC(=O)c1ccccc1)C(=O)O (centres undefined)
11,139 to 142 °C,Cc1cncc(CNC(=O)c2sc(N3CCN(CC(C)C)C3=O)nc2C)n1
12,194 to 196 °C,O=C(c1ccc2ccccc2n1)N1CCN=C1Nc1c(Cl)cccc1Cl
13,155 to 158 °C,O=c1c(-c2ccccc2)c(CNc2ncnc3[nH]cnc23)oc2ccccc12
14,96 to 97 °C,COC(=O)CCCc1cc2nc(Cl)ccc2n1S(=O)(=O)c1cccc(N(C)C)c1
15,210 to 216 °C,CC1(N)CN(c2cc3c(cc2F)c(=O)c(C(=O)O)cn3-c2ccc(F)cc2F)C1
16,89 to 90.5 °C,COc1ccc(C2CCc3ccccc3C2O)cc1 (centres undefined)
17,167 to 168 °C,O=C1c2ccccc2C(=O)N1CC1CCC2CN(c3ccccn3)CCN2C1 (centres undefined)
18,> 300 °C,COc1ccc(-c2[nH]nc3c2C(=O)c2c(NC(=O)Cc4ccc(OC)c(OC)c4)cccc2-3)cc1
19,70 °C,C=CCC1(c2ccccc2)OC(C(=O)OC)Oc2ccc(Cl)cc21 (centres undefined)
20,128 to 130 °C,CCCNC(=O)C(O)C1c2ccccc2C(=O)N1c1ccc2ccc(C)nc2n1 (centres undefined)
21,159 to 161 °C,CCOC(=O)c1cn(-c2ccccc2)c2ccc(CN3CCOCC3)cc2c1=O
22,39 °C,CCCCCCCCCCCCCCCCOCC(COC(c1ccccc1)(c1ccccc1)c1ccccc1)COS(C)(=O)=O (centres undefined)
23,112 to 114 °C,COC(=O)C1=C(C)NC(C)=C(C(=O)OCCCBr)C1c1cccc([N+](=O)[O-])c1 (centres undefined)
24,79 to 80 °C,COC(=O)CCc1cc2cc(F)ccc2n1S(=O)(=O)c1ccccc1

row,melting point,SMILES
1,131 to 132 °C,CCn1c2ccccc2c2cc(C=Cc3ccc(N)cc3)ccc21
2,134 °C,NC(=O)N(O)[C@H]1CC[C@H](Oc2ccccc2)C1
3,89 to 90 °C,CC(C)OCC(COC(C)C)OCn1cnc2cnc(N)nc21
4,144 to 145 °C,COc1cc(C=CC=O)ccc1OCc1coc(-c2ccccc2)n1
5,224 to 226 °C,Cc1nn(C)c2nc(N)c(-c3cccc(Cl)c3)nc12
6,127 to 129 °C,Brc1cc(C=Cc2scc3c2OCCO3)ccn1
7,173 to 175 °C,CCCn1c(-c2ccc(-n3ccnc3)cc2)cnc1[C@H](Cc1ccccn1)N(C=O)c1cc2cc(Cl)ccc2o1
8,221 to 223 °C,O=C(O)C(Cc1ccccc1)Oc1ccc2cc(-c3nc(-c4ccccc4)sc3Br)ccc2c1Br (centres undefined)
9,194 °C,Cc1nc2cc(NS(=O)(=O)c3cc(Cl)ccc3Cl)ccc2o1
10,240 °C,CCCc1nc(CO)c(C(=O)O)n1Cc1cc2c(cc1Cl)OCO2
11,167 to 169 °C,Cn1cc(S(C)=O)c(=O)c2sc(-c3ccccc3Cl)cc21 (centres undefined)
12,109 to 111 °C,O=C(O)CCCOc1ccc(C(=O)c2ccc(F)cc2)cc1
13,264 to 266 °C,COc1ccc(-c2csc(Nc3ncccc3C)n2)cc1OC
14,150 to 151 °C,Cc1ccc(CC(C(N)=O)c2ccccc2)cc1 (centres undefined)
15,200 to 203 °C,CC(C)(C)OC(=O)Nc1ccc2c(c1)OCC(=O)N2
16,185 to 186 °C,CCOc1ccc(/C=C/c2nc3c(c(=O)n(CC)c(=O)n3CC)n2C)cc1
17,58 to 59 °C,COc1ccc(COCc2ccc(OC)cc2)cc1
18,168 to 169 °C,CCOc1ccc(CCNC(=O)C(N)=O)cc1OCC
19,159 to 161 °C,CC(=O)c1ccc(Oc2ccc(O)cc2)cc1
20,170 to 171 °C,COc1cccc2c1CN(Nc1ccncc1)CC2
21,124 to 127 °C,CC(=O)Nc1ccc(OCC(O)CCCl)cc1 (centres undefined)

row,SMILES,melting point
1,Cc1cc(NC(=O)C(C)(O)COc2cccc(C(F)(F)F)c2)ccc1[N+](=O)[O-] (centres undefined),84 to 87 °C
2,CC(C)NC(=O)c1cnc(N2CCC(N3C(=O)OCc4ccccc43)CC2)c(Cl)c1,216 °C
3,CCC1CC2=CC(=O)CCC2C2CCC3(C)C(O)CCC3C12 (centres undefined),142 to 144 °C
4,CC12CC(=O)C3C(CCC4CC(O)CCC43C)C1CCC2C(=O)CCOC(=O)CCl (centres undefined),95 to 97 °C
5,C[C@@H]1N(c2ccc(C#N)c(Cl)c2)C(=O)C[C@@]1(O)C1CC1,93 to 100 °C
6,COP(=S)(OC)SCc1cc(=O)[nH]c(C(C)C)n1,89 to 93 °C
